# Reference: publication PMC1298333, “Biochemical characterization of the Arctic char (Salvelinus alpinus) ovarian progestin membrane receptor” (Reproductive biology and endocrinology : RB&E, 2005)
# Molecular target: T1, 17,20beta-P membrane receptor (ovarian membrane progestin receptor, mPR)
# T1 construct: gene paqr7; native receptor in crude ovarian plasma membrane fraction (20,000 g pellet)
# Experiment: radioligand saturation, filtration assay, Scatchard
# Format: binding, Salvelinus alpinus
# Conditions: labelled compound ([3H]-17,20β-P); ovarian membranes, pH 7.4, +4°C, 30 min
row,Compound,Kd [nM]
1,"C[C@@H](O)[C@@]1(O)CC[C@H]2[C@@H]3CCC4=CC(=O)CC[C@]4(C)[C@H]3CC[C@@]21C [17,20β-P, 17,20beta-dihydroxy-4-pregnen-3-one]",13.8 ± 1.1

# Molecular target: T1, 17,20beta-P membrane receptor (ovarian membrane progestin receptor, mPR)
# Experiment: competition with [3H]-17, […]β-P, filtration assay
# Format: binding, Salvelinus alpinus
# Conditions: 7 nM [3H]-17,20β-P, ovarian membranes, pH 7.4, +4°C, 30 min; read-out: Concentration (nM) causing 50% displacement
row,Compound,IC50 [nM]
1,"C[C@]12CC[C@H]3[C@@H](CCC4=CC(=O)CC[C@@]43C)[C@@H]1CC[C@@H]2C(=O)CO [11-DOC, 11-deoxycorticosterone]",132
2,"C[C@@H](O)[C@@]1(O)CC[C@H]2[C@@H]3CCC4=CC(=O)CC[C@]4(C)[C@H]3CC[C@@]21C [17,20β-P, 17,20beta-dihydroxy-4-pregnen-3-one]",1.25
3,"CC(=O)[C@@]1(O)CC[C@H]2[C@@H]3CCC4=CC(=O)CC[C@]4(C)[C@H]3CC[C@@]21C [17α-OH-P, 17α-hydroxyprogesterone]",69.3
4,"C[C@]12CCC(=O)C=C1CC[C@@H]1[C@@H]2CC[C@@]2(C)[C@H]1CC[C@]2(O)[C@H](O)CO [20β-S, 17, 20β, 21-trihydroxy-4-pregnen-3-one]",145
5,"C[C@]12CCC(=O)C=C1CC[C@@H]1[C@@H]2CC[C@@]2(C)[C@H]1CC[C@]2(O)C(=O)CO [DC, 11-deoxycortisol]",207
6,"C[C@]12CC[C@@H]3c4ccc(O)cc4CC[C@H]3[C@@H]1CC[C@@H]2O [E2, 17β-estradiol]",37.9
7,"C[C@]12CCC(=O)C=C1CC[C@@H]1[C@@H]2[C@@H](O)C[C@@]2(C)[C@H]1CC[C@]2(O)C(=O)CO [F, cortisol]",14400
8,CC(C)C(=O)Nc1ccc([N+](=O)[O-])c(C(F)(F)F)c1 [Flutamide],256
9,"CC(=O)[C@H]1CC[C@H]2[C@@H]3CCC4=CC(=O)CC[C@]4(C)[C@H]3CC[C@]12C [P4, progesterone]",52.6
10,"C[C@]12CC[C@H]3[C@@H](CCC4=CC(=O)CC[C@@]43C)[C@@H]1CC[C@@H]2O [T, testosterone]",18300
11,CN(C)c1ccc([C@H]2C[C@]3(C)[C@@H](CC[C@]3(O)CCCO)[C@@H]3CCC4=CC(=O)CCC4=C32)cc1 [ZK 98299],12900
12,"Clc1ccc(C(c2ccccc2Cl)C(Cl)Cl)cc1 (stereo not drawn) [o,p'-DDD]",549
13,"Clc1ccc(C(c2ccccc2Cl)C(Cl)(Cl)Cl)cc1 (stereo not drawn) [o,p'-DDT]",378
14,ZK 112992,1180
